Laboratory results as given in US8877748B2, “Heterocyclic fused anthraquinone derivatives, manufacturing method and pharmaceutical composition using thereof” (National Defense Medical Center, priority 2012, dated 2014).

What was measured:
[1] = system: PC-3 prostate cancer cell line; assay: SRB assay cell viability, PC-3 prostate cancer cell line; assay type: cell-based, human; settings: Homo sapiens, PC-3 prostate cancer cell line, Table II prints no unit, μM printed, read-out: SRB assay: 50% inhibition of cancer cell proliferation of sample concentration (IC50) of PC-3 prostate cancer cell line
HL-60, TB = assay: NCI one-dose screening, leukemia HL-60, TB; assay type: cell-based, human; settings: 10 μM
MOLT-4 = assay: NCI one-dose screening, leukemia MOLT-4; assay type: cell-based, human; settings: 10 μM
SR = assay: NCI one-dose screening, leukemia SR; assay type: cell-based, human; settings: 10 μM
PRMI-8226 cell line = assay: NCI one-dose screening, leukemia PRMI-8226; assay type: cell-based, human; settings: 10 μM
K562cell line = assay: NCI one-dose screening, leukemia K562; assay type: cell-based, human; settings: 10 μM
EKVX = assay: NCI one-dose screening, non-small cell lung cancer EKVX; assay type: cell-based, human; settings: 10 μM
HOP-62 = assay: NCI one-dose screening, non-small cell lung cancer HOP-62; assay type: cell-based, human; settings: 10 μM
HOP-92 = assay: NCI one-dose screening, non-small cell lung cancer HOP-92; assay type: cell-based, human; settings: 10 μM
NCI-H226 = assay: NCI one-dose screening, non-small cell lung cancer NCI-H226; assay type: cell-based, human; settings: 10 μM
NCI-H23 = assay: NCI one-dose screening, non-small cell lung cancer NCI-H23; assay type: cell-based, human; settings: 10 μM
NCI-H460 = assay: NCI one-dose screening, non-small cell lung cancer NCI-H460; assay type: cell-based, human; settings: 10 μM
NCI-H522 = assay: NCI one-dose screening, non-small cell lung cancer NCI-H522; assay type: cell-based, human; settings: 10 μM
A549/ATCC = assay: NCI one-dose screening, non-small cell lung cancer A549/ATCC; assay type: cell-based, human; settings: 10 μM
COLO 205 = assay: NCI one-dose screening, colon cancer COLO 205; assay type: cell-based, human; settings: 10 μM
HCC-2998 = assay: NCI one-dose screening, colon cancer HCC-2998; assay type: cell-based, human; settings: 10 μM
HCT-116 = assay: NCI one-dose screening, colon cancer HCT-116; assay type: cell-based, human; settings: 10 μM
HCT-15 = assay: NCI one-dose screening, colon cancer HCT-15; assay type: cell-based, human; settings: 10 μM
KM12 = assay: NCI one-dose screening, colon cancer KM12; assay type: cell-based, human; settings: 10 μM
HT29 = assay: NCI one-dose screening, colon cancer HT29; assay type: cell-based, human; settings: 10 μM
SF-268 = assay: NCI one-dose screening, CNS cancer SF-268; assay type: cell-based, human; settings: 10 μM
SF-295 = assay: NCI one-dose screening, CNS cancer SF-295; assay type: cell-based, human; settings: 10 μM
SF-539 = assay: NCI one-dose screening, CNS cancer SF-539; assay type: cell-based, human; settings: 10 μM
SNB-19 = assay: NCI one-dose screening, CNS cancer SNB-19; assay type: cell-based, human; settings: 10 μM
SNB-75 = assay: NCI one-dose screening, CNS cancer SNB-75; assay type: cell-based, human; settings: 10 μM
U251 = assay: NCI one-dose screening, CNS cancer U251; assay type: cell-based, human; settings: 10 μM
LOX IMVI = assay: NCI one-dose screening, melanoma LOX IMVI; assay type: cell-based, human; settings: 10 μM
MALME-3M = assay: NCI one-dose screening, melanoma MALME-3M; assay type: cell-based, human; settings: 10 μM
M14 = assay: NCI one-dose screening, melanoma M14; assay type: cell-based, human; settings: 10 μM
UACC-62 = assay: NCI one-dose screening, melanoma UACC-62; assay type: cell-based, human; settings: 10 μM
UACC-257 = assay: NCI one-dose screening, melanoma UACC-257; assay type: cell-based, human; settings: 10 μM
SK-MEL-2 = assay: NCI one-dose screening, melanoma SK-MEL-2; assay type: cell-based, human; settings: 10 μM
SK-MEL-28 = assay: NCI one-dose screening, melanoma SK-MEL-28; assay type: cell-based, human; settings: 10 μM
SK-MEL-5 = assay: NCI one-dose screening, melanoma SK-MEL-5; assay type: cell-based, human; settings: 10 μM
IGROV1 = assay: NCI one-dose screening, ovarian cancer IGROV1; assay type: cell-based, human; settings: 10 μM
OVCAR-3 = assay: NCI one-dose screening, ovarian cancer OVCAR-3; assay type: cell-based, human; settings: 10 μM
OVCAR-5 = assay: NCI one-dose screening, ovarian cancer OVCAR-5; assay type: cell-based, human; settings: 10 μM
OVCAR-8 = assay: NCI one-dose screening, ovarian cancer OVCAR-8; assay type: cell-based, human; settings: 10 μM
SK-OV-3 = assay: NCI one-dose screening, ovarian cancer SK-OV-3; assay type: cell-based, human; settings: 10 μM
786-O = assay: NCI one-dose screening, renal cancer 786-O; assay type: cell-based, human; settings: 10 μM
CAKI-1 = assay: NCI one-dose screening, renal cancer CAKI-1; assay type: cell-based, human; settings: 10 μM
[2] = NCI one-dose screening, renal cancer A489; assay type: cell-based, human; settings: 10 μM
ACHN = assay: NCI one-dose screening, renal cancer ACHN; assay type: cell-based, human; settings: 10 μM
SN12C = assay: NCI one-dose screening, renal cancer SN12C; assay type: cell-based, human; settings: 10 μM
TK-10 = assay: NCI one-dose screening, renal cancer TK-10; assay type: cell-based, human; settings: 10 μM
UO-31 = assay: NCI one-dose screening, renal cancer UO-31; assay type: cell-based, human; settings: 10 μM
RXF, 393 = assay: NCI one-dose screening, renal cancer RXF, 393; assay type: cell-based, human; settings: 10 μM
DU145 = assay: NCI one-dose screening, prostate cancer DU145; assay type: cell-based, human; settings: 10 μM
PC-3 = assay: NCI one-dose screening, prostate cancer PC-3; assay type: cell-based, human; settings: 10 μM
MCF7 = assay: NCI one-dose screening, breast cancer MCF7; assay type: cell-based, human; settings: 10 μM
HS 578-T = assay: NCI one-dose screening, breast cancer HS 578-T; assay type: cell-based, human; settings: 10 μM; Breast cancer
MDA-MB-231/ATCC = assay: NCI one-dose screening, breast cancer MDA-MB-231/ATCC; assay type: cell-based, human; settings: 10 μM
MDA-MB-468 = assay: NCI one-dose screening, breast cancer MDA-MB-468; assay type: cell-based, human; settings: 10 μM
NCl/ADR-RES = assay: NCI one-dose screening, breast cancer NCl/ADR-RES; assay type: cell-based, human; settings: 10 μM; listed under Ovarian cancer
BT-549 = assay: NCI one-dose screening, breast cancer BT-549; assay type: cell-based, human; settings: 10 μM
T-47D = assay: NCI one-dose screening, breast cancer T-47D; assay type: cell-based, human; settings: 10 μM
MDA, -MB-435 = assay: NCI one-dose screening, breast cancer MDA, -MB-435; assay type: cell-based, human; settings: 10 μM; listed under Melanoma
human tumor cell lines = assay: NCI one-dose screening, Mean / Delta / Range of growth percent over all tested cell lines; assay type: cell-based; settings: 10 μM

## CSc1ccc(Sc2cc3c(c4nsnc24)C(=O)c2ccccc2C3=O)cc1 [C43, 4-(4-(methylthio)phenylthio)anthra[2,1-c] [1,2,5]thiadiazol-6,11-dione]
[1]
  IC50: > 15 µM
HL-60, TB
  Growth Percent HL-60(TB): 105.25%
MOLT-4
  Growth Percent MOLT-4: 59.93%
SR
  Growth Percent SR: 96.31%
PRMI-8226 cell line
  Growth Percent RPMI-8226: 88.58%
K562cell line
  Growth Percent K562: 67.50%
EKVX
  Growth Percent EKVX: 113.82%
HOP-62
  Growth Percent HOP-62: 102.09%
HOP-92
  Growth Percent HOP-92: 04.31%
NCI-H226
  Growth Percent NCI-H226: 79.69%
NCI-H23
  Growth Percent NCI-H23: 81.49%
NCI-H460
  Growth Percent NCI-H460: 106.20%
NCI-H522
  Growth Percent NCI-H522: 95.39%
A549/ATCC
  Growth Percent A549/ATCC: 104.69%
COLO 205
  Growth Percent COLO 205: 117.30%
HCC-2998
  Growth Percent HCC-2998: 111.01%
HCT-116
  Growth Percent HCT-116: 101.97%
HCT-15
  Growth Percent HCT-15: 111.56%
KM12
  Growth Percent KM12: 100.42%
HT29
  Growth Percent HT29: 102.26%
SF-268
  Growth Percent SF-268: 89.67%
SF-295
  Growth Percent SF-295: 98.897%
SF-539
  Growth Percent SF-539: 96.48%
SNB-19
  Growth Percent SNB-19: 101.61%
SNB-75
  Growth Percent SNB-75: 75.08%
U251
  Growth Percent U251: 103.89%
LOX IMVI
  Growth Percent LOX IMVI: 68.98%
MALME-3M
  Growth Percent MALME-3M: 104.58%
M14
  Growth Percent M14: 107.55%
UACC-62
  Growth Percent UACC-62: 110.99%
UACC-257
  Growth Percent UACC-257: 109.51%
SK-MEL-2
  Growth Percent SK-MEL-2: 89.27%
SK-MEL-28
  Growth Percent SK-MEL-28: 119.66%
SK-MEL-5
  Growth Percent SK-MEL-5: 101.45%
IGROV1
  Growth Percent IGROV1: 95.67%
OVCAR-3
  Growth Percent OVCAR-3: 102.89%
OVCAR-5
  Growth Percent OVCAR-5: 108.31%
OVCAR-8
  Growth Percent OVCAR-8: 97.37%
SK-OV-3
  Growth Percent SK-OV-3: 102.46%
786-O
  Growth Percent 786-0: 109.83%
CAKI-1
  Growth Percent CAKI-1: 99.44%
[2]
  Growth Percent A498: 56.04%
ACHN
  Growth Percent ACHN: 103.64%
SN12C
  Growth Percent SN12C: 98.04%
TK-10
  Growth Percent TK-10: 128.10%
UO-31
  Growth Percent UO-31: 67.56%
RXF, 393
  Growth Percent RXF 393: 106.98%
DU145
  Growth Percent DU145: 101.05%
PC-3
  Growth Percent PC-3: 78.37%
MCF7
  Growth Percent MCF7: 82.87%
HS 578-T
  Growth Percent HS 578T: 96.47%
MDA-MB-231/ATCC
  Growth Percent MDA-MB-231/ATCC: 78.80%
MDA-MB-468
  Growth Percent MDA-MB-468: 82.25%
NCl/ADR-RES
  Growth Percent NCI/ADR-RES: 91.79%
BT-549
  Growth Percent BT-549: 107.82%
T-47D
  Growth Percent T-47D: 86.56%
MDA, -MB-435
  Growth Percent MDA-MB-435: 118.40%
Human tumor cell lines; delta over all cell lines
  Growth Percent Delta: 40.76%
Human tumor cell lines; mean over all cell lines
  Growth Percent Mean: 96.80%
Human tumor cell lines; range over all cell lines
  Growth Percent Range: 72.06%
